Experimental data published in US20230017532A1 (Hoffmann-La Roche Inc., priority 2018, published 2023).
Where a name gives a salt, the structure may show the parent alone.

The compounds below were run on Acinetobacter baumannii ATCC17961 (assay: Antimicrobial susceptibility testing: 90% growth inhibitory concentration (IC90) determination, Iso-Sensitest broth, OD 600 nm). Settings: 90% growth inhibitory concentration, Acinetobacter baumannii ATCC17961, Iso-Sensitest broth, OD 600 nm over 16 h; read-out: ATCC 17961 IC90.
Format: cell-based
How it was run: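 Growth of bacteria (~5×10^5 CFU/ml, Iso-Sensitest medium, 35±2 °C) was followed by OD at 600 nm at 20-min intervals over 16 h against a 10-point twofold compound series (e.g. 50–0.097 μM final). Concentration giving 90% inhibition in log phase was reported.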

Row | Compound | IC90 [nM]
1 | COc1ccc(-c2cnc3c(Nc4cc(C)c(C(=O)NCCOCCNC(=O)[C@@H]5C[C@@H](O)CN5)c(F)c4)nccn23)c(F)c1F [Example 215, (2S,4R)-N-(2-(2-(4-((3-(2,3-difluoro-4-methoxyphenyl)imidazo[1,2-a]pyrazin-8-yl)amino)-2-fluoro-6-methyl-benzamido)ethoxy)ethyl)-4-hydroxy-pyrrolidine-2-carboxamide] | 230
2 | CCc1cc(Nc2nccn3c(-c4ccc(OC)c(F)c4F)cnc23)ccc1C(=O)NCCNCCNCC(=O)O [Example 216, (2-((2-(4-((3-(2,3-difluoro-4-methoxyphenyl)imidazo[1,2-a]pyrazin-8-yl)amino)-2-ethyl-benzamido)ethyl)amino)ethyl) glycine] | 490
3 | C#CCNCCCNC(=O)c1ccc(Nc2nccn3c(-c4ccc(OC)c(F)c4F)cnc23)cc1CC [Example 225, 4-((3-(2,3-difluoro-4-methoxyphenyl)imidazo[1,2-a]pyrazin-8-yl)amino)-2-ethyl-N-(3-(prop-2-yn-1-ylamino)propyl) benzamide] | 50
4 | CCc1cc(Nc2nccn3c(-c4cc(F)c(OC)cc4F)cnc23)ccc1C(=O)NCCOCCN [Example 222, N-[2-(2-amino-ethoxy)ethyl]-4-[[3-(2,5-difluoro-4-methoxy-phenyl)imidazo[1,2-a]pyrazin-8-yl]amino]-2-ethyl-benzamide] | 40
5 | CCc1cc(Nc2nccn3c(-c4ccc(Oc5ccccn5)c(F)c4F)cnc23)ccc1C(=O)NCCNCC(=O)N1CCN[C@H](CO)C1 [Example 205, 4-[[3-[2,3-difluoro-4-(2-pyridyloxy)phenyl]imidazo [1,2-a]pyrazin-8-yl]amino]-2-ethyl-N-[2-[[2-[(3S)-3-(hydroxymethyl)piperazin-1-yl]-2-oxo-ethyl]amino]ethyl]benzamide] | 590
6 | C=CCNCCCNC(=O)c1ccc(Nc2nccn3c(-c4ccc(OC)c(F)c4F)cnc23)cc1CC [Example 181, 4-[[3-(2,3-difluoro-4-methoxyphenyl)imidazo[1,2-a]pyrazin-8-yl]amino]-2-ethyl-N-[3-(prop-2-enylamino)propyl] benzamide; hydrochloride] | 160
7 | COc1ccc(-c2cnc3c(Nc4cc(C)c(C(=O)NCCOCCN)c(F)c4)nccn23)c(F)c1F [Example 191, N-[2-(2-amino-ethoxy]-4-[[3-(2,3-difluoro-4-methoxyphenyl)imidazo[1,2-a]pyrazin-8-yl]amino]-2-fluoro-6-methyl-benzamide; hydrochloride] | 87
8 | CCOCCCNC(=O)c1ccc(Nc2nccn3c(-c4ccc(OC)c(F)c4F)cnc23)cc1CC [Example 224, 4-((3-(2,3-difluoro-4-methoxyphenyl)imidazo[1,2-a]pyrazin-8-yl)amino)-N-(3-ethoxypropyl)-2-ethylbenzamide] | 180
9 | CCc1cc(Nc2nccn3c(-c4ccc(OC)cc4CC)cnc23)ccc1C(=O)NCCOCCN [Example 206, N-(2-(2-amino-ethoxy)ethyl)-2-ethyl-4-((3-(2-ethyl-4-methoxyphenyl)imidazo[1,2-a]pyrazin-8-yl)amino)benzamide hydrochloride] | 260
10 | CCc1cc(Nc2nccn3c(-c4ccc(OC)c(F)c4F)cnc23)ccc1C(=O)N[C@@H](C)CNCCO [Example 218, 4-[[3-(2,3-difluoro-4-methoxy-phenyl)imidazo [1,2-a]pyrazin-8-yl]amino]-2-ethyl-N-[(1S)-2-(2-hydroxyethyl-amino)-1-methyl-ethyl]benzamide] | 540
11 | CCc1cc(Nc2nccn3c(-c4cc(F)cc(OC)c4)cnc23)ccc1C(=O)NCCOCCN [Example 211, N-[2-(2-amino-ethoxy)ethyl]-2-ethyl-4-[[3-(3-fluoro-5-methoxy-phenyl)imidazo [1,2-a]pyrazin-8-yl]amino] benzamide] | 940
12 | COc1ccc(-c2cnc3c(Nc4ccc(C(=O)NCCOCCN)c(F)c4F)nccn23)c(F)c1F [Example 63, N-(2-(2-aminoethoxy)ethyl)-4-((3-(2,3-difluoro-4-methoxy-phenyl)imidazo [1,2-a]pyrazin-8-yl)amino)-2,3-difluoro-benzamide] | 880
13 | C#CCOc1ccc(-c2cnc3c(Nc4ccc(C(=O)N[C@@H](C)CNCC(N)=O)c(CC)c4)nccn23)c(F)c1F [Example 207, N-[(1S)-2-[(2-amino-2-oxo-ethyl)amino]-1-methyl-ethyl]-4-[[3-(2,3-difluoro-4-prop-2-ynoxy-phenyl)imidazo [1,2-a]pyrazin-8-yl]amino]-2-ethyl-benzamide] | 350
14 | COc1ccc(-c2cnc3c(Nc4cc(C)c(C(=O)NCCOCCOCCN)c(F)c4)nccn23)c(F)c1F [Example 208, N-(2-(2-(2-aminoethoxy)ethoxy)ethyl)-4-((3-(2,3-difluoro-4-methoxyphenyl)imidazo[1,2-a]pyrazin-8-yl)amino)-2-fluoro-6-methyl-benzamide dihydrochloride] | 230
15 | CCc1cc(Nc2nccn3c(-c4cccc(F)c4F)cnc23)ccc1C(=O)NCCOCCN [Example 209, N-[2-(2-amino-ethoxy)ethyl]-4-[[3-(2,3-difluoro-phenyl)imidazo [1,2-a]pyrazin-8-yl]amino]-2-ethyl-benzamide] | 330
16 | CCc1cc(Nc2nccn3c(-c4ccc(OC)c(F)c4F)cnc23)ccc1C(=O)N[C@@H](C)CNCCN [Example 219, N-[(1S)-2-(2-aminoethyl-amino)-1-methyl-ethyl]-4-[[3-(2,3-difluoro-4-methoxy-phenyl)imidazo[1,2-a]pyrazin-8-yl]amino]-2-ethyl-benzamide; formic acid] | 580
17 | CCc1cc(Nc2nccn3c(-c4ccc(OC)c(F)c4F)cnc23)cc(F)c1C(=O)NCCOCCN [Example 202, N-(2-(2-amino-ethoxy)ethyl)-4-((3-(2,3-difluoro-4-methoxyphenyl)imidazo[1,2-a]pyrazin-8-yl)amino)-2-ethyl-6-fluorobenzamide dihydrochloride] | 200
18 | COc1ccc(-c2cnc3c(Nc4ccc(C(=O)NCCCNCCO)c(Cl)c4)nccn23)c(F)c1F [Example 221, 2-chloro-4-((3-(2,3-difluoro-4-methoxyphenyl)imidazo[1,2-a]pyrazin-8-yl)amino)-N-(3-((2-hydroxyethyl)amino)propyl) benzamide 2-chloro-4-((3-(2,3-difluoro-4-methoxyphenyl)imidazo[1,2-a]pyrazin-8-yl)amino)-N-(3-((2-hydroxyethyl)amino)propyl)benzamide] | 80
19 | COc1ccc(-c2cnc3c(Nc4cc(C)c(C(=O)NCCOCCN(C)C)c(F)c4)nccn23)c(F)c1F [Example 190, 4-[[3-(2,3-difluoro-4-methoxyphenyl)imidazo[1,2-a]pyrazin-8-yl]amino]-N-[2-[2-(dimethylamino)ethoxy]ethyl]-2-fluoro-6-methylbenzamide] | 56
